The record followed here is patent US7235687B2, “Derivatives of 4,4′-dithiobis-(3-aminobutane-1-sulfphonates) and compositions containing same” (Institut National de la Sante et de la Recherche Medicale …, priority 2002, dated 2007).

This assay deals with Deoxycorticosterone acetate (DOCA)-salt hypertensive rats. The assay can be described thus: Effect on blood pressure in DOCA-salt hypertensive rats. It counts as in vivo, rat. Particulars: DOCA-salt hypertensive male Wistar Kyoto rats; oral gavage in water at 15 mg/kg; 4.5 hours after administration. As to the method: Deoxycorticosterone acetate (DOCA)-salt hypertensive rats were obtained according to Pham, I. et al (1993) J. Pharmacol. Exp. Ther. 265, 1339–1347 with the following modifications: under pentobarbital anaesthesia, unilateral nephrectomy was performed in male Wistar Kyoto rats (300 g) and a pellet of 50 mg of DOCA was implanted s.c. After surgery, the rats were fed on standard rat chow and the drinking water was supplemented with 0.9% NaCl and 0.2% KCl. Hypertension developed 3 weeks after surgery.
To record arterial blood pressure, DOCA-salt rats were anaesthetized with pentobarbital sodium (50 mg/kg i.p., Sentravet laboratory, Plancoët, France), a femoral artery catheter (PE50) filled with heparinized saline (250 U/ml) was inserted, then brought under the skin and emerged at the nape of the neck. A flexible metal spring was attached to the skull and neck of the rat and connected to dual channel swivels mounted directly above the cage. This arrangement allowed the rat free movement inside the cage. […] Mean arterial BP was continuously recorded throughout each experiment using a COBE CDX III pressure transducer (Phymep, Paris, France) connected to the MacLab system (Phymep, Paris, France) composed of a MacLab technology unit and Chart software running on a Macintosh computer. […]

Each structure is given as a SMILES string.

`Cl.Cl.NC(CCS(=O)(=O)[O-])CSSCC(N)CCS(=O)(=O)[O-].[Na+].[Na+]` (stereo not shown) [Example 1, 4,4′ dithiobis (sodium 3-aminobutane-1-sulfonate) bis chlorohydrate]: the “decrease of mean arterial blood pressure” value was 3680 Pa.
